target: T1, human capsaicin receptor (Homo sapiens, UniProt Q8NER1); test: Calcium mobilization assay (Example 6); assay type: cell-based; settings: concentration required to provide a 50% decrease in the fluorescence response of cells exposed to one IC50 of capsaicin
T1 construct: A cDNA encoding full length human capsaicin receptor recited in U.S. Pat. No. 6,482,611 was subcloned in the plasmid pBK-CMV; expressed in transfected cells
Method: Human embryonic kidney (HEK293) cells were transfected with the pBK-CMV expression construct encoding the full length human capsaicin receptor using standard methods. The transfected cells were selected for two weeks in media containing G418 (400 μg/ml) to obtain a pool of stably transfected cells. Independent clones were isolated from this pool by limiting dilution to obtain clonal stable cell lines for use in subsequent experiments.
Cells transfected with expression plasmids (as described in Example 4) and thereby expressing human capsaicin receptor are seeded and grown to 70-90% confluency in FALCON black-walled, clear-bottomed 96-well plates (#3904, BECTON-DICKINSON, Franklin Lakes, N.J.). The culture medium is emptied from the 96 well plates and FLUO-3 AM calcium sensitive dye (Molecular Probes, Eugene, Oreg.) is added to each well (dye solution: 1 mg FLUO-3 AM, 440 μL DMSO and 440 μl 20% pluronic acid in DMSO, diluted 1:250 in Krebs-Ringer HEPES (KRH) buffer (25 mM HEPES, 5 mM KCl, 0.96 mM NaH2PO4, 1 mM MgSO4, 2 mM CaCl2, 5 mM glucose, 1 mM probenecid, pH 7.4), 50 μl diluted solution per well). Plates are covered with aluminum foil and incubated at 37° C. for 1-2 hours in an environment containing 5% CO2. After the incubation, the dye is emptied from the plates, and the cells are washed once with KRH buffer, and, resuspended in KRH buffer.
Agonist (e.g., olvanil, capsaicin, or RTX)-induced calcium mobilization is monitored using either FLUOROSKAN ASCENT (Labsystems, Franklin, Mass.) or FLIPR (fluorometric imaging plate reader system, Molecular Devices, Sunnyvale, Calif.) instruments. Varying concentrations of the antagonists ruthenium red or capsazepine (RBI; Natick, Mass.) are added to cells concurrently with agonist (e.g., 25-50 nM capsaicin). For agonist-induced calcium responses, data obtained between 30 and 60 seconds after agonist application are used to generate the IC50 values. KALEIDAGRAPH software (Synergy Software, Reading, Pa.) is used to fit the data to the equation: y=a*(1/(1+(b/x)^c)) to determine the IC50 for the response. In this equation, y is the maximum fluorescence signal, x is the concentration of the agonist or antagonist, a is the Emax, b corresponds to the IC50 value and c is the Hill coefficient.
To measure the ability of a test compound to antagonize (inhibit) the response of cells expressing capsaicin receptors to capsaicin or other vanilloid agonist, the IC50 of capsaicin is first determined. An additional 20 μl of KRH buffer and 1 μl DMSO is added to each well of cells, prepared as described above. 100 μl capsaicin in KRH buffer is automatically transferred by the FLIPR instrument to each well. An 8-point concentration response curve, with final capsaicin concentrations of 1 nM to 3 μM, is used to determine capsaicin IC50.
Test compounds are dissolved in DMSO, diluted in 20 μl KRH buffer so that the final concentration of test compounds in the assay well is between 1 μM and 5 μM, and added to cells prepared as described above. The 96 well plates containing prepared cells and test compounds are incubated in the dark, at room temperature for 0.5 to 6 hours. It is important that the incubation not continue beyond 6 hours. Just prior to determining the fluorescence response, 100 μl capsaicin in KRH buffer at twice the IC50 concentration determined from the concentration response curve is automatically added by the FLIPR instrument to each well of the 96 well plate for a final sample volume of 200 μl and a final capsaicin concentration equal to the IC50. The final concentration of test compounds in the assay wells is between 1 μM and 5 μM. […] Antagonists of the capsaicin receptor decrease this response by at least about 20%, preferably by at least about 50%, and most preferably by at least 80% as compared to matched control. The concentration of antagonist required to provide a 50% decrease is the IC50 for the antagonist, and is preferably below 1 micromolar, 100 nanomolar, 10 nanomolar or 1 nanomolar. […]

T1 sequence (Q8NER1 whole entry): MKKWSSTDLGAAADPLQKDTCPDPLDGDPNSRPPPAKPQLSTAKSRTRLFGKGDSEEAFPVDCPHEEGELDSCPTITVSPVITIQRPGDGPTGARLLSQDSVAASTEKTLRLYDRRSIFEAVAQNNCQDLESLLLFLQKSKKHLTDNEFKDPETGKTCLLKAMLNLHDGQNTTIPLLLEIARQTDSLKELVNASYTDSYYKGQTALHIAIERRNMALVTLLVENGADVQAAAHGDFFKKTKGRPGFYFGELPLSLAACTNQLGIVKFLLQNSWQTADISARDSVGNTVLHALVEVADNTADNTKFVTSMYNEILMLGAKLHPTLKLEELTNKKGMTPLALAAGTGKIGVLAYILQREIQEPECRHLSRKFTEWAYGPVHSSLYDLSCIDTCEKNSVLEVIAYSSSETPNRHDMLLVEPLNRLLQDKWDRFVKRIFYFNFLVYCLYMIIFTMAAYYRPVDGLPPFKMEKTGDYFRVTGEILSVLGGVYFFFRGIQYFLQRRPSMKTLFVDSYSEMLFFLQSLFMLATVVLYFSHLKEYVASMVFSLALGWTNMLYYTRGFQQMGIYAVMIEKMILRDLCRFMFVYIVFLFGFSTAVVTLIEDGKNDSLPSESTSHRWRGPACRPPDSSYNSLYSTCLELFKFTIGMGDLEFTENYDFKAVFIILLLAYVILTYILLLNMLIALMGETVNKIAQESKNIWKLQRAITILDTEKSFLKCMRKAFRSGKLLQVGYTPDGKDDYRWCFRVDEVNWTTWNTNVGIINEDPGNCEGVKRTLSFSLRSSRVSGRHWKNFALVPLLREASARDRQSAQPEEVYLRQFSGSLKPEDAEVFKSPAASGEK

SMILES | IC50 [nM]
CC(C)COCc1cc(Nc2ccc(C(C)(C)O)cn2)c2ccc(-c3ncccc3C(F)(F)F)nc2n1 [Compound 85, 2-[6-({2-(isobutoxymethyl)-7-[3-(trifluoromethyl)pyridin-2-yl]-1,8-naphthyridin-4-yl}amino)pyridin-3-yl]propan-2-ol] | ≤ 1000
CC(C)COCc1cc(Nc2ccc(C(F)(F)F)cn2)c2ccc(-c3ncccc3C(F)(F)F)nc2n1 [Compound 44, 2-(isobutoxymethyl)-7-[3-(trifluoromethyl)pyridin-2-yl]-N-[5-(trifluoromethyl)pyridin-2-yl]-1,8-naphthyridin-4-amine] | ≤ 1000
FC(F)(F)c1ccc(Nc2cc(CN3CCCCC3)nc3nc(-c4ncccc4C(F)(F)F)ccc23)nc1 [Compound 92, 2-(piperidin-1-ylmethyl)-7-[3-(trifluoromethyl)pyridin-2-yl]-N-[5-(trifluoromethyl)pyridin-2-yl]-1,8-naphthyridin-4-amine] | ≤ 1000
CCCc1cc(Nc2ccc(C(C)=O)cn2)c2ccc(-c3ncccc3C(F)(F)F)nc2n1 [Compound 115, 1-[6-({2-propyl-7-[3-(trifluoromethyl)pyridin-2-yl]-1,8-naphthyridin-4-yl}amino)pyridin-3-yl]ethanone] | ≤ 1000
CC(C)COCc1cc(Nc2ccccn2)c2ccc(-c3ncccc3C(F)(F)F)nc2n1 [Compound 84, 2-(isobutoxymethyl)-N-pyridin-2-yl-7-[3-(trifluoromethyl)pyridin-2-yl]-1,8-naphthyridin-4-amine] | ≤ 1000
CC(C)COCc1cc(Nc2ccc(C(C)(C)O)cc2)c2ccc(-c3ncccc3Cl)nc2n1 [Compound 64, 2-(4-{[7-(3-chloropyridin-2-yl)-2-(isobutoxymethyl)-1,8-naphthyridin-4-yl]amino}phenyl)propan-2-ol] | ≤ 1000
CC(C)(C)c1ccc(Nc2cc(N3CCCCC3)nc3cc(-c4ncccc4C(F)(F)F)ccc23)cc1 [Compound 26, N-(4-tert-butylphenyl)-2-piperidin-1-yl-7-[3-(trifluoromethyl)pyridin-2-yl]quinolin-4-amine] | ≤ 1000
Cc1cccnc1-c1ccc2c(Nc3ncc(C(F)(F)F)cn3)ccnc2n1 [Compound 137, 7-(3-methylpyridin-2-yl)-N-[5-(trifluoromethyl)pyrimidin-2-yl]-1,8-naphthyridin-4-amine] | ≤ 1000
C[C@@H]1CN(Cc2cc(Nc3ccc(C(F)(F)F)cn3)c3ccc(-c4ncccc4C(F)(F)F)nc3n2)C[C@H](C)O1 [Compound 90, rel-2-{[(2R,6S)-2,6-dimethylmorpholin-4-yl]methyl}-7-[3-(trifluoromethyl)pyridin-2-yl]-N-[5(trifluoromethyl)pyridin-2-yl]-1,8-naphthyridin-4-amine] | ≤ 1000
CC(C)(O)COCc1cc(Nc2ccc(C(F)(F)F)cc2)c2ccc(-c3ncccc3C(F)(F)F)nc2n1 [Compound 82, 2-methyl-1-({4-{[4-(trifluoromethyl)phenyl]amino}-7-[3-(trifluoromethyl)pyridin-2-yl]-1,8-naphthyridin-2-yl}methoxy)propan-2-ol] | ≤ 1000
CCCOc1cc(Nc2ccc(C(C)(C)C)cc2)c2ccc(-c3ncccc3C(F)(F)F)cc2n1 [Compound 33, N-(4-tert-butylphenyl)-2-propoxy-7-[3-(trifluoromethyl)pyridin-2-yl]quinolin-4-amine] | ≤ 1000
CC(C)COc1cc(Nc2ccc(C(F)(F)F)cc2)c2ccc(-c3ncccc3C(F)(F)F)cc2n1 [Compound 18, 2-isobutoxy-N-[4-(trifluoromethyl)phenyl]-7-[3-(trifluoromethyl)pyridin-2-yl]quinolin-4-amine] | ≤ 1000

Second part, the molecule after the results:

IC50 [nM] | SMILES
≤ 1000 | FC(F)(F)c1ccc(Nc2ccnc3nc(-c4ncccc4C(F)(F)F)ccc23)cc1 [Compound 35, N-[4-(trifluoromethyl)phenyl]-7-[3-(trifluoromethyl)pyridin-2-yl]-1,8--naphthyridin-4-amine]
≤ 1000 | CC(C)C(=O)N(C)Cc1cc(Nc2ccc(C(F)(F)F)cc2)c2ccc(-c3ncccc3C(F)(F)F)nc2n1 [Compound 75, N,2-dimethyl-N-({4-{[4-(trifluoromethyl)phenyl]amino}-7-[3-(trifluoromethyl)pyridin-2-yl]-1,8-naphthyridin-2-yl}methyl)propanamide]
≤ 1000 | CC(C)NCc1cc(Nc2ccc(C(F)(F)F)cc2)c2ccc(-c3ncccc3C(F)(F)F)nc2n1 [Compound 58, 2-[(isopropylamino)methyl]-N-[4-(trifluoromethyl)phenyl]-7-[3-(trifluoromethyl)pyridin-2-yl]-1,8-naphthyridin-4-amine]
≤ 1000 | CC(=O)c1ccc(Nc2ccnc3nc(-c4ncccc4C(F)(F)F)ccc23)nc1 [Compound 141, 1-[6-({7-[3-(trifluoromethyl)pyridin-2-yl]-1,8-naphthyridin-4-yl}amino)pyridin-3-yl]ethanone]
≤ 1000 | Cc1cc(Nc2ccc(C(F)(F)F)cn2)c2ccc(-c3ncccc3C(F)(F)F)nc2n1 [Compound 39, 2-methyl-7-[3-(trifluoromethyl)pyridin-2-yl]-N-[5-(trifluoromethyl)pyridin-2-yl]-1,8-naphthyridin-4-amine]
≤ 1000 | CC(C)CCOc1cc(Nc2ccc(C(C)(C)C)cc2)c2ccc(-c3ncccc3C(F)(F)F)cc2n1 [Compound 32, N-(4-tert-butylphenyl)-2-(isopentyloxy)-7-[3-(trifluoromethyl)pyridin-2-yl]quinolin-4-amine]
≤ 1000 | Cc1cc(Nc2ccc(C(F)(F)F)cc2)c2ccc(-c3ncccc3C(F)(F)F)cc2n1 [Compound 1, 2-methyl-N-[4-(trifluoromethyl)phenyl]-7-[3-(trifluoromethyl)pyridin-2-yl]quinolin-4-amine]
≤ 1000 | COCc1cc(Nc2ccc(C(F)(F)F)cn2)c2ccc(-c3ncccc3C(F)(F)F)nc2n1 [Compound 14, 2-(methoxymethyl)-7-[3-(trifluoromethyl)pyridin-2-yl]-N-[5-(trifluoromethyl)pyridin-2-yl]-1,8-naphthyridin-4-amine]
≤ 1000 | COCc1cc(Nc2ccc3c(c2)NCCC3(C)C)c2ccc(-c3ncccc3C(F)(F)F)nc2n1 [Compound 16, N-(4,4-dimethyl-1,2,3,4-tetrahydroquinolin-7-yl)-2-(methoxymethyl)-7-[3-(trifluoromethyl)pyridin-2-yl]-1,8-naphthyridin-4-amine]
≤ 1000 | CC(C)N(CCCO)Cc1cc(Nc2ccc(C(F)(F)F)cc2)c2ccc(-c3ncccc3C(F)(F)F)nc2n1 [Compound 78, 3-[isopropyl({4-{[4-(trifluoromethyl)phenyl]amino}-7-[3-(trifluoromethyl)pyridin-2-yl]-1,8-naphthyridin-2-yl}methyl)amino]propan-1-ol]
≤ 1000 | FC(F)(F)c1cccnc1-c1ccc2c(Nc3ccc(Cl)cn3)cc(C3CCC3)nc2n1 [Compound 101, N-(5-chloropyridin-2-yl)-2-cyclobutyl-7-[3-(trifluoromethyl)pyridin-2-yl]-1,8-naphthyridin-4-amine]
≤ 1000 | CCCc1cc(Nc2ccc(CC)cn2)c2ccc(-c3ncccc3C(F)(F)F)nc2n1 [Compound 128, N-(5-ethylpyridin-2-yl)-2-propyl-7-[3-(trifluoromethyl)pyridin-2-yl]-1,8-naphthyridin-4-amine]
≤ 1000 | CC(C)c1cc(Nc2ccc(C(C)(C)O)cn2)c2ccc(-c3ncccc3C(F)(F)F)nc2n1 [Compound 118, 2-[6-({2-isopropyl-7-[3-(trifluoromethyl)pyridin-2-yl]-1,8-naphthyridin-4-yl}amino)pyridin-3-yl]propan-2-ol]

From patent US7488740B2, “Substituted quinolin-4-ylamine analogues” (Neurogen Corporation, priority 2003, dated 2009)
